One assay has as its target hAM1 receptor (Homo sapiens, UniProt O60895+Q16602). As to the kind of experiment: cAMP assay for in vitro receptor activation, hAM1-R. Format: cell-based. Conditions: cAMP assay, hAM1 receptor; read-out: hAM1R EC50. The essentials: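 A subcloned monoclonal line stably expressing hAM1 receptor is thawed and plated at 8000 cells/well. The assay buffer is DPBS with 0.05% casein and 0.5 mM IBMX, and receptor activation is followed by cAMP levels.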

For another assay, the target named is T1, hAMY3 receptor (Homo sapiens, UniProt O60896+P30988).
T1 sequence (P30988 25-474): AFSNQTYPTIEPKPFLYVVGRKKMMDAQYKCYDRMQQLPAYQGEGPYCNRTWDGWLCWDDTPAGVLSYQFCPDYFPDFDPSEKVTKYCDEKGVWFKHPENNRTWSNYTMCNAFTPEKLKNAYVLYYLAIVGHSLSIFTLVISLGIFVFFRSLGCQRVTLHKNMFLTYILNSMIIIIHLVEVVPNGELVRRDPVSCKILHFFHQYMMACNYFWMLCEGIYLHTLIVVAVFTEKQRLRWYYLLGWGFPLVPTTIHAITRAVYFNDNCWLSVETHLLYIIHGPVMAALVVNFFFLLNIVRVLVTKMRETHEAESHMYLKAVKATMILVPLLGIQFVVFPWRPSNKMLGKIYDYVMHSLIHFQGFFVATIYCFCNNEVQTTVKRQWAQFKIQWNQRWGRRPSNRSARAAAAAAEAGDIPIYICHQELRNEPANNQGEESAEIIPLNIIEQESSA
T1 sequence (O60896 24-148 partner): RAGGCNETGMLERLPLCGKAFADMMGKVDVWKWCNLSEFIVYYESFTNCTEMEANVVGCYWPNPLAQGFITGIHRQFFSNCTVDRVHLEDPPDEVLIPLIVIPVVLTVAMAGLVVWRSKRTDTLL
The assay can be described thus: cAMP assay for in vitro receptor activation, hAMY3-R. Format: cell-based. As to conditions: cAMP assay, hAMY3 receptor; read-out: hAMY3R EC50. The essentials: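 Stable hAMY3 cells; DPBS + 0.05% casein + 0.5 mM IBMX; graded compound doses, 30 min, RT; cAMP via HTRF Gs kit, TR-FRET read at 1 h.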
For orientation: cAMP levels reflect the balance of adenylyl cyclase and phosphodiesterase activity.

Here are results for 6 molecules from patent US12139520B2 (priority 2020, dated 2024).

Numbered stars: 1 amine (or outer) side, 2 acyl side, 3 side chain; on linkers, the order of the positions; unused ones are H or OH. Bridge positions count the residues as written; N and C are the ends. Square brackets hold non-standard residues; d marks the D form. Peptide text beside a SMILES is read from it. * marks the point of attachment. C20 diacid = O=C(O)CCCCCCCCCCCCCCCCCCC(=O)*; γGlu = O=C(O)[C@H](CCC(=O)[*:2])N[*:1]; Hyp = O=C(O)[C@@H]1C[C@@H](O)CN1

Sequence of hAM1 receptor (Q16602 23-461): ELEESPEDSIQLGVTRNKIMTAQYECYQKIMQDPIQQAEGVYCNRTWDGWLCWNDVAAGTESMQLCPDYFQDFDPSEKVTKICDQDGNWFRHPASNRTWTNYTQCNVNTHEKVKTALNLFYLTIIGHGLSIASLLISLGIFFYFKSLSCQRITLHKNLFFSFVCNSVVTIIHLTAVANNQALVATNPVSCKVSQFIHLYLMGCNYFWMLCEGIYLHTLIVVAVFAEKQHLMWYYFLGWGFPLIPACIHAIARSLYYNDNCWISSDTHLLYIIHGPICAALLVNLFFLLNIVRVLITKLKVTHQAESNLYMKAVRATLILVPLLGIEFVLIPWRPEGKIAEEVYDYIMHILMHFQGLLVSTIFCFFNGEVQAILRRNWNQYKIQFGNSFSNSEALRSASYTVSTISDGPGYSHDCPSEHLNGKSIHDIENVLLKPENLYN
Sequence of hAM1 receptor (O60895 43-175 partner): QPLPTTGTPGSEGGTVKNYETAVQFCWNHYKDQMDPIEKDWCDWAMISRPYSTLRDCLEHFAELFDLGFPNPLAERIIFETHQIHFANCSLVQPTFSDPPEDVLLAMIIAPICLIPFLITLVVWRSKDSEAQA

With `CC[C@H](C)[C@H](NC(=O)[C@H](C)NC(=O)CNC(=O)[C@H](Cc1ccccc1)NC(=O)[C@H](CC(N)=O)NC(=O)[C@H](CC(N)=O)NC(=O)[C@H](CO)NC(=O)[C@H](CO)NC(=O)[C@H](Cc1c[nH]cn1)NC(=O)[C@@H](NC(=O)[C@H](CC(C)C)NC(=O)[C@H](Cc1ccccc1)NC(=O)[C@H](CC(N)=O)NC(=O)[C@H](C)NC(=O)[C@H](CC(C)C)NC(=O)[C@H](CCCNC(=N)N)NC(=O)[C@H](CCC(N)=O)NC(=O)[C@@H](NC(=O)[C@H](C)NC(=O)[C@@H]1CSSC[C@H](NC(=O)[C@@H](N)CCCCN)C(=O)N[C@@H](CC(N)=O)C(=O)N[C@@H]([C@@H](C)O)C(=O)N[C@@H](C)C(=O)N[C@@H]([C@@H](C)O)C(=O)N1)[C@@H](C)O)C(C)C)C(=O)N[C@@H](CC(C)C)C(=O)N[C@@H](CO)C(=O)N[C@@H](CO)C(=O)N[C@H](C(=O)N[C@@H](CCCCN)C(=O)N[C@H](C(=O)NCC(=O)N[C@@H](CO)C(=O)N[C@@H](CC(N)=O)C(=O)NCC(=O)N[C@@H](Cc1ccc(O)cc1)C(N)=O)[C@@H](C)CC)[C@@H](C)O` [compound 148] (H-KCNTATCATQRLANFLVHSSNNFGAILSSTKIGSNGY-NH2; disulfide 2-7; N-terminus assumed), the EC50 is more than 5000 nM on hAM1 receptor and 0.04 nM on hAMY3 receptor.
In the same order, the values of `CC[C@H](C)[C@H](NC(=O)[C@H](CCC(N)=O)NC(=O)[C@H](Cc1c[nH]cn1)NC(=O)[C@H](C)NC(=O)[C@H](CC(C)C)NC(=O)[C@H](CCCNC(=N)N)NC(=O)[C@H](CCC(N)=O)NC(=O)[C@@H](NC(=O)[C@@H](NC(=O)[C@@H]1CSSC[C@H](NC(=O)[C@H](CCCCN)NC(=O)CC[C@H](NC(=O)CCCCCCCCCCCCCCCCCCC(=O)O)C(=O)O)C(=O)N[C@@H](CC(N)=O)C(=O)N[C@@H]([C@@H](C)O)C(=O)N[C@@H](C)C(=O)N[C@@H]([C@@H](C)O)C(=O)N1)[C@@H](C)O)C(C)C)C(=O)N[C@@H](C)C(=O)N[C@@H](CCC(N)=O)C(=O)N[C@@H](Cc1ccccc1)C(=O)N[C@@H](C)C(=O)N[C@@H](CC(=O)O)C(=O)N[C@@H](CCCCN)C(=O)N[C@@H](CC(=O)O)C(=O)N[C@@H](CCCCN)C(=O)N[C@@H](CC(=O)O)C(=O)N[C@@H](CC(N)=O)C(=O)N[C@H](C(=O)N[C@@H](C)C(=O)N1CCC[C@H]1C(=O)N1CCC[C@H]1C(=O)N[C@H](C(=O)N[C@@H](CC(N)=O)C(=O)N[C@H](C(=O)NCC(=O)N[C@@H](CO)C(=O)N[C@@H](CC(N)=O)C(=O)NCC(=O)N1C[C@H](O)C[C@H]1C(N)=O)C(C)C)[C@@H](C)O)C(C)C` [compound 105] ({C20 diacid-γGlu}-KCNTATCTVQRLAHQIAQFADKDKDNVAPPTNVGSNG[Hyp]-NH2; disulfide 2-7) are more than 5000 nM and 0.018 nM.
On the same counts, the results for `CC[C@H](C)[C@H](NC(=O)[C@H](CCC(N)=O)NC(=O)[C@H](Cc1c[nH]cn1)NC(=O)[C@H](C)NC(=O)[C@H](CC(C)C)NC(=O)[C@H](CCCNC(=N)N)NC(=O)[C@H](CCC(N)=O)NC(=O)[C@@H](NC(=O)[C@@H](NC(=O)[C@@H]1CSSC[C@H](NC(=O)[C@H](CCCCN)NC(=O)CC[C@H](NC(=O)CCCCCCCCCCCCCCCCCCC(=O)O)C(=O)O)C(=O)N[C@@H](CC(N)=O)C(=O)N[C@@H](Cc2ccccc2)C(=O)N[C@@H](C)C(=O)N[C@@H]([C@@H](C)O)C(=O)N1)[C@@H](C)O)C(C)C)C(=O)N[C@@H](Cc1ccc(O)cc1)C(=O)N[C@@H](CCC(N)=O)C(=O)N[C@@H](Cc1ccccc1)C(=O)N[C@H](C(=O)N[C@@H](CC(=O)O)C(=O)N[C@@H](CCCCN)C(=O)N[C@@H](CC(=O)O)C(=O)N[C@@H](CCCCN)C(=O)N[C@@H](CC(=O)O)C(=O)N[C@@H](CC(N)=O)C(=O)N[C@H](C(=O)N[C@@H](C)C(=O)N1CCC[C@H]1C(=O)N[C@@H](CCCNC(=N)N)C(=O)N[C@H](C(=O)N[C@@H](CCC(=O)O)C(=O)N[C@H](C(=O)NCC(=O)N[C@@H](CO)C(=O)N[C@@H](CC(N)=O)C(=O)NCC(=O)N1C[C@H](O)C[C@H]1C(N)=O)C(C)C)[C@@H](C)O)C(C)C)[C@@H](C)O` [compound 67] ({C20 diacid-γGlu}-KCNFATCTVQRLAHQIYQFTDKDKDNVAPRTEVGSNG[Hyp]-NH2; disulfide 2-7) are 116 nM and 0.013 nM.
On to `CC[C@H](C)[C@H](NC(=O)[C@H](CCC(N)=O)NC(=O)[C@H](Cc1c[nH]cn1)NC(=O)[C@H](C)NC(=O)[C@H](CC(C)C)NC(=O)[C@H](CCCNC(=N)N)NC(=O)[C@H](CCC(N)=O)NC(=O)[C@@H](NC(=O)[C@@H](NC(=O)[C@@H]1CSSC[C@H](NC(=O)[C@H](CCCCN)NC(=O)CC[C@H](NC(=O)CCCCCCCCCCCCCCCCCCC(=O)O)C(=O)O)C(=O)N[C@@H](CC(N)=O)C(=O)N[C@@H]([C@@H](C)O)C(=O)N[C@@H](C)C(=O)N[C@@H]([C@@H](C)O)C(=O)N1)[C@@H](C)O)C(C)C)C(=O)N[C@H](C(=O)N[C@@H](CCC(N)=O)C(=O)N[C@@H](Cc1ccccc1)C(=O)N[C@H](C(=O)N[C@@H](CC(=O)O)C(=O)N[C@@H](CCCCN)C(=O)N[C@@H](CC(=O)O)C(=O)N[C@@H](CCCCN)C(=O)N[C@@H](CC(=O)O)C(=O)N[C@@H](CC(N)=O)C(=O)N[C@H](C(=O)N[C@@H](C)C(=O)N1CCC[C@H]1C(=O)N1CCC[C@H]1C(=O)N[C@H](C(=O)N[C@@H](CC(N)=O)C(=O)N[C@H](C(=O)NCC(=O)N[C@@H](CO)C(=O)N[C@@H](CC(N)=O)C(=O)NCC(=O)N1C[C@H](O)C[C@H]1C(N)=O)C(C)C)[C@@H](C)O)C(C)C)[C@@H](C)O)[C@@H](C)O` [compound 22] ({C20 diacid-γGlu}-KCNTATCTVQRLAHQITQFTDKDKDNVAPPTNVGSNG[Hyp]-NH2; disulfide 2-7), for which the figures for the concentration giving a half-maximal response (EC50) at hAM1 receptor and on hAMY3 receptor were more than 5000 nM and 0.008 nM, respectively.
Consider `CC[C@H](C)[C@H](NC(=O)[C@H](CCC(N)=O)NC(=O)[C@H](Cc1c[nH]cn1)NC(=O)[C@H](C)NC(=O)[C@H](CC(C)C)NC(=O)[C@H](CCCNC(=N)N)NC(=O)[C@H](CCC(N)=O)NC(=O)[C@@H](NC(=O)[C@@H](NC(=O)[C@@H]1CSSC[C@H](NC(=O)[C@H](CCCCN)NC(=O)CC[C@H](NC(=O)CCCCCCCCCCCCCCCCCCC(=O)O)C(=O)O)C(=O)N[C@@H](CC(N)=O)C(=O)N[C@@H]([C@@H](C)O)C(=O)N[C@@H](C)C(=O)N[C@@H]([C@@H](C)O)C(=O)N1)[C@@H](C)O)C(C)C)C(=O)N[C@@H](C)C(=O)N[C@@H](CCC(N)=O)C(=O)N[C@@H](Cc1ccc(O)cc1)C(=O)N[C@H](C(=O)N[C@@H](CC(=O)O)C(=O)N[C@@H](CCCCN)C(=O)N[C@@H](CC(=O)O)C(=O)N[C@@H](CCCCN)C(=O)N[C@@H](CC(=O)O)C(=O)N[C@@H](CC(N)=O)C(=O)N[C@H](C(=O)N[C@@H](C)C(=O)N1CCC[C@H]1C(=O)N1CCC[C@H]1C(=O)N[C@H](C(=O)N[C@@H](CC(N)=O)C(=O)N[C@H](C(=O)NCC(=O)N[C@@H](CO)C(=O)N[C@@H](CC(N)=O)C(=O)NCC(=O)N1C[C@H](O)C[C@H]1C(N)=O)C(C)C)[C@@H](C)O)C(C)C)[C@@H](C)O` [compound 71] ({C20 diacid-γGlu}-KCNTATCTVQRLAHQIAQYTDKDKDNVAPPTNVGSNG[Hyp]-NH2; disulfide 2-7), for which the EC50 is more than 5000 nM on hAM1 receptor and 0.013 nM on hAMY3 receptor.
On the same counts, the results for `CC[C@H](C)[C@H](NC(=O)[C@H](CCC(N)=O)NC(=O)[C@H](CCC(=O)O)NC(=O)[C@H](C)NC(=O)[C@H](CC(C)C)NC(=O)[C@H](CCCNC(=N)N)NC(=O)[C@H](CCC(N)=O)NC(=O)[C@@H](NC(=O)[C@@H](NC(=O)[C@@H]1CSSC[C@H](NC(=O)[C@H](CCCCN)NC(=O)CC[C@H](NC(=O)CCCCCCCCCCCCCCCCCCC(=O)O)C(=O)O)C(=O)N[C@@H](C)C(=O)N[C@@H]([C@@H](C)O)C(=O)N[C@@H](C)C(=O)N[C@@H]([C@@H](C)O)C(=O)N1)[C@@H](C)O)C(C)C)C(=O)N[C@@H](Cc1ccc(O)cc1)C(=O)N[C@@H](CCC(N)=O)C(=O)N[C@@H](Cc1ccccc1)C(=O)N[C@H](C(=O)N[C@@H](CC(=O)O)C(=O)N[C@@H](CCCCN)C(=O)N[C@@H](CC(=O)O)C(=O)N[C@@H](CCCCN)C(=O)N[C@@H](CC(=O)O)C(=O)N[C@@H](CC(N)=O)C(=O)N[C@H](C(=O)N[C@@H](C)C(=O)N1CCC[C@H]1C(=O)N1CCC[C@H]1C(=O)N[C@H](C(=O)N[C@@H](CC(N)=O)C(=O)N[C@H](C(=O)NCC(=O)N[C@@H](CO)C(=O)N[C@@H](CC(N)=O)C(=O)NCC(=O)N1C[C@H](O)C[C@H]1C(N)=O)C(C)C)[C@@H](C)O)C(C)C)[C@@H](C)O` [compound 97] ({C20 diacid-γGlu}-KCATATCTVQRLAEQIYQFTDKDKDNVAPPTNVGSNG[Hyp]-NH2; disulfide 2-7) are more than 5000 nM and 0.016 nM.

The term EC50 denotes the midpoint of the concentration-response curve.
